Assay results reported in PubChem BioAssay (NCI).
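At the GI50, growth is halved. TGI denotes the concentration required for complete inhibition of growth.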

How the values were obtained:
Experiment in all cases: DTP human tumour cell line panel, 384-well format; in the data active means GI50 below about 0.43 µM; inactive means the rest
[1] = tested on: MOLT-4 leukemia
[2] = tested on: TK-10 renal
[3] = tested on: HOP-92 NSCLC
[4] = tested on: HCT-116 colon
[5] = tested on: SF-268 CNS
[6] = tested on: 786-0 renal
[7] = tested on: SN12C renal
[8] = tested on: T-47D breast
[9] = tested on: CAKI-1 renal
[10] = tested on: HCC-2998 colon
[11] = tested on: IGROV1 ovarian
[12] = tested on: OVCAR-3 ovarian
[13] = tested on: HL-60(TB) leukemia
[14] = tested on: A549 NSCLC
[15] = tested on: OVCAR-4 ovarian
[16] = tested on: MDA-MB-468 breast
[17] = tested on: MCF7 breast
[18] = tested on: A498 renal
[19] = tested on: OVCAR-5 ovarian
[20] = tested on: ACHN renal
[21] = tested on: SW-620 colon
[22] = tested on: MALME-3M melanoma
[23] = tested on: LOX IMVI melanoma
[24] = tested on: NCI-H322M lung
[25] = tested on: NCI-H522 lung
[26] = tested on: CCRF-CEM leukemia
[27] = tested on: NCI-H23 lung
[28] = tested on: SK-MEL-28 melanoma
[29] = tested on: SNB-19 CNS
[30] = tested on: OVCAR-8 ovarian
[31] = tested on: RXF 393 renal
[32] = tested on: NCI-H460 NSCLC
[33] = tested on: HOP-62 NSCLC
[34] = tested on: U251 glioblastoma
[35] = tested on: NCI-H226 lung
[36] = tested on: COLO 205 colon
[37] = tested on: SR leukemia
[38] = tested on: SK-MEL-2 melanoma
[39] = tested on: K-562 leukemia
[40] = tested on: UO-31 renal
[41] = tested on: SF-539 CNS
[42] = tested on: UACC-257 melanoma
[43] = tested on: DU-145 prostate
[44] = tested on: MDA-MB-435 melanoma
[45] = tested on: SF-295 CNS
[46] = tested on: SK-MEL-5 melanoma
[47] = tested on: RPMI-8226 leukemia
[48] = tested on: MDA-MB-231 breast
[49] = tested on: M14 melanoma
[50] = tested on: HCT-15 colon
[51] = tested on: BT-549 breast
[52] = tested on: SK-OV-3 ovarian
[53] = tested on: NCI/ADR-RES ovarian

C=C1C[C@@H]2CC[C@@]34C[C@H]5O[C@H]6[C@@H](O3)[C@H]3O[C@H](CC[C@@H]3O[C@H]6[C@@H]5O4)CC(=O)C[C@@H]3[C@@H](OC)[C@@H](C[C@H](O)CN)O[C@H]3C[C@H]3O[C@@H](CC[C@@H]1O2)C[C@@H](C)C3=C
14.1 nM: TGI [34]
43.3 nM: TGI [23]
40 nM: TGI [5]
> 100000 nM: TGI [2] | TGI [7] | TGI [8] | TGI [9] | TGI [11] | TGI [19] | TGI [20] | TGI [21] | TGI [22] | TGI [24] | TGI [28] | TGI [40]
12.9 nM: TGI [39]
2720 nM: TGI [49]
85300 nM: TGI [42]
206 nM: TGI [35]
186 nM: TGI [14]
84.9 nM: TGI [52]
41.2 nM: TGI [29]
3500 nM: TGI [50]
5950 nM: TGI [53]
3340 nM: TGI [33]
974 nM: TGI [15]
596 nM: TGI [17]
16.6 nM: TGI [36]
389 nM: TGI [6]
27.6 nM: TGI [30]
52.8 nM: TGI [3]
246 nM: TGI [45]
219 nM: TGI [4]
inactive: GI50 [53] 1900 nM
1100 nM: TGI [18]
active: GI50 [1] < 10 nM | GI50 [2] 52.8 nM | GI50 [3] < 10 nM | GI50 [4] < 10 nM | GI50 [5] < 10 nM | GI50 [6] < 10 nM | GI50 [7] < 10 nM | GI50 [8] < 10 nM | GI50 [9] < 10 nM | GI50 [10] < 10 nM | GI50 [11] < 10 nM | GI50 [12] < 10 nM | GI50 [13] < 10 nM | GI50 [14] < 10 nM | GI50 [15] < 10 nM | GI50 [16] < 10 nM | GI50 [17] < 10 nM | GI50 [18] < 10 nM | GI50 [19] < 10 nM | GI50 [20] 73.3 nM | GI50 [21] < 10 nM | GI50 [22] < 10 nM | GI50 [23] < 10 nM | GI50 [24] < 10 nM | GI50 [25] < 10 nM | GI50 [26] < 10 nM | GI50 [27] < 10 nM | GI50 [28] < 10 nM | GI50 [29] < 10 nM | GI50 [30] < 10 nM | GI50 [31] < 10 nM | GI50 [32] < 10 nM | GI50 [33] < 10 nM | GI50 [34] < 10 nM | GI50 [35] < 10 nM | GI50 [36] < 10 nM | GI50 [37] < 10 nM | GI50 [38] < 10 nM | GI50 [39] < 10 nM | GI50 [40] 225 nM | GI50 [41] < 10 nM | GI50 [42] < 10 nM | GI50 [43] < 10 nM | GI50 [44] < 10 nM | GI50 [45] 22.9 nM | GI50 [46] < 10 nM | GI50 [47] < 10 nM | GI50 [48] < 10 nM | GI50 [49] < 10 nM | GI50 [50] 69 nM | GI50 [51] < 10 nM | GI50 [52] < 10 nM
< 10 nM: TGI [1] | TGI [10] | TGI [12] | TGI [13] | TGI [16] | TGI [25] | TGI [26] | TGI [27] | TGI [31] | TGI [32] | TGI [37] | TGI [38] | TGI [41] | TGI [43] | TGI [44] | TGI [46] | TGI [47] | TGI [51]
165 nM: TGI [48]
